From patent US12404295B2, “(Hetero)aryl-methyl-thio-beta-D-galactopyranoside derivatives” (Idorsia Pharmaceuticals Ltd, priority 2019, dated 2025)

Legend:
human Gal-1 (hGal-1) = human Gal-1 (hGal-1) (Homo sapiens (Human), UniProt P09382); assay: competitive binding assay: biotinylated hGal-1 binding to microplate-adsorbed asialofetuin (ASF); details: Table 15; read-out: IC50 (Galectin-1 inhibition)
Experimental: Inhibition data of the epimers R and S of selected Examples are also listed.
(§1) Evaluation of Compound Inhibitory Activity (IC50)
The inhibitory activity of compounds is determined in competitive binding assays. This spectrophotometric assay measures the binding of biotinylated human Gal-3 (hGal-3) or human Gal-1 (hGal-1), respectively, to a microplate-adsorbed glycoprotein, asialofetuin (ASF) (Proc Natl Acad Sci USA. 2013 Mar. 26; 110(13):5052-7.).
Briefly, compounds are serially diluted in DMSO (working dilutions). ASF-coated 384 well plates are supplemented with 22.8 μL/well of biotinylated hGal-3 or hGal-1 in assay buffer (i.e. 300-1000 ng/mL biotinylated hGal-3 or hGal-1) to which 1.2 μL of compound working dilutions are added and mixed.
(§2) Plates are incubated for 3 hours at 4° C., then washed with cold assay buffer (3×50 uL), incubated for 1 hour with 25 μL/well of a streptavidin-peroxidase solution (diluted in assay buffer to 80 ng/mL) at 4° C., followed by further washing steps with assay buffer (3×50 uL). Finally, 25 μL/well of ABTS substrate is added.
(§3) The calculated IC50 values may fluctuate depending on the daily assay performance. Fluctuations of this kind are known to those skilled in the art. IC50 values from several measurements are given as mean values.

human Gal-3 (hGal-3) = human Gal-3 (hGal-3) (Homo sapiens (Human), UniProt P17931); assay: competitive binding assay: biotinylated hGal-3 binding to microplate-adsorbed asialofetuin (ASF); details: Gal-3 inhibition; binding of biotinylated hGal-3 to ASF; mean values; read-out: IC50
human Gal-3 (hGal-3), sequence (P17931 whole entry): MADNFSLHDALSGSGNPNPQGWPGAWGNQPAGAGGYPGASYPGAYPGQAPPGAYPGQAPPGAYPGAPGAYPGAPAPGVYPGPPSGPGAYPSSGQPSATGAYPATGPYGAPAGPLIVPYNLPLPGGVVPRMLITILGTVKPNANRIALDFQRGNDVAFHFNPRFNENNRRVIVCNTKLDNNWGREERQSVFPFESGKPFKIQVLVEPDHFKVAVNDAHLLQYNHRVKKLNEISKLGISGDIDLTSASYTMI
Experimental: If not explicitly mentioned otherwise, the inhibition data refer to the binding of biotinylated human Gal-3 (hGal-3).
as §1
The inhibitory activity of compounds is determined in competitive binding assays.
Briefly, compounds are serially diluted in DMSO (working dilutions).
as §2, §3

human Gal-1 (hGal-1), sequence (P09382 whole entry): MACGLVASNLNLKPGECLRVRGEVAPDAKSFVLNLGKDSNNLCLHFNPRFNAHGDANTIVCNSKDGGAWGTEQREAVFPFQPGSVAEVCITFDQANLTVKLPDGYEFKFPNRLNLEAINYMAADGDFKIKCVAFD

SMILES	IC50 (human Gal-1 (hGal-1)) [µM]	IC50 (human Gal-3 (hGal-3)) [µM]
CCc1ccccc1C(S[C@@H]1O[C@H](CO)[C@H](O)[C@H](n2cc(-c3cc(F)c(F)c(F)c3)nn2)[C@H]1O)C(C)(C)O (stereo partly drawn) [Example 2.31.103., (2S,3R,4S,5R,6R)-2-((1-(2-Ethylphenyl)-2-hydroxy-2-methylpropyl)thio)-6-(hydroxymethyl)-4-(4-(3,4,5-trifluorophenyl)-1H-1,2,3-triazol-1-yl)tetrahydro-2H-pyran-3,5-diol]	1.23	0.3
CCCc1ccccc1C(S[C@@H]1O[C@H](CO)[C@H](O)[C@H](n2cc(-c3cc(F)c(F)c(F)c3)nn2)[C@H]1O)C(C)(C)O (stereo partly drawn) [Example 2.31.104., (2S,3R,4S,5R,6R)-2-((2-Hydroxy-2-methyl-1-(2-propylphenyl)propyl)thio)-6-(hydroxymethyl)-4-(4-(3,4,5-trifluorophenyl)-1H-1,2,3-triazol-1-yl)tetrahydro-2H-pyran-3,5-diol]	0.6	0.17
CC(C)c1ccccc1C(S[C@@H]1O[C@H](CO)[C@H](O)[C@H](n2cc(-c3cc(F)c(F)c(F)c3)nn2)[C@H]1O)C(C)(C)O (stereo partly drawn) [Example 2.31.105., (2S,3R,4S,5R,6R)-2-((2-Hydroxy-1-(2-isopropylphenyl)-2-methylpropyl)thio)-6-(hydroxymethyl)-4-(4-(3,4,5-trifluorophenyl)-1H-1,2,3-triazol-1-yl)tetrahydro-2H-pyran-3,5-diol]	0.3	0.18
CC(C)c1ccccc1[C@@H](S[C@@H]1O[C@H](CO)[C@H](O)[C@H](n2cc(-c3cc(F)c(F)c(F)c3)nn2)[C@H]1O)C(C)(C)O [Example 2.31.105R., (2S,3R,4S,5R,6R)-2-(((R)-2-Hydroxy-1-(2-isopropylphenyl)-2-methylpropyl)thio)-6-(hydroxymethyl)-4-(4-(3,4,5-trifluorophenyl)-1H-1,2,3-triazol-1-yl)tetrahydro-2H-pyran-3,5-diol]	0.16	0.06
CC(C)c1ccccc1[C@H](S[C@@H]1O[C@H](CO)[C@H](O)[C@H](n2cc(-c3cc(F)c(F)c(F)c3)nn2)[C@H]1O)C(C)(C)O [Example 2.31.105S., (2S,3R,4S,5R,6R)-2-(((S)-2-Hydroxy-1-(2-isopropylphenyl)-2-methylpropyl)thio)-6-(hydroxymethyl)-4-(4-(3,4,5-trifluorophenyl)-1H-1,2,3-triazol-1-yl)tetrahydro-2H-pyran-3,5-diol]	65.1	8.3
CC(C)(O)C(S[C@@H]1O[C@H](CO)[C@H](O)[C@H](n2cc(-c3cc(F)c(F)c(F)c3)nn2)[C@H]1O)c1ccccc1C1CC1 (stereo partly drawn) [Example 2.31.106., (2S,3R,4S,5R,6R)-2-((1-(2-Cyclopropylphenyl)-2-hydroxy-2-methylpropyl)thio)-6-(hydroxymethyl)-4-(4-(3,4,5-trifluorophenyl)-1H-1,2,3-triazol-1-yl)tetrahydro-2H-pyran-3,5-diol]	0.34	0.2
CC(C)(O)[C@H](S[C@@H]1O[C@H](CO)[C@H](O)[C@H](n2cc(-c3cc(F)c(F)c(F)c3)nn2)[C@H]1O)c1ccccc1C1CC1 [Example 2.31.106R., (2S,3R,4S,5R,6R)-2-(((R)-1-(2-cyclopropylphenyl)-2-hydroxy-2-methylpropyl)thio)-6-(hydroxymethyl)-4-(4-(3,4,5-trifluorophenyl)-1H-1,2,3-triazol-1-yl)tetrahydro-2H-pyran-3,5-diol]	0.21	0.14
CC(C)(O)[C@@H](S[C@@H]1O[C@H](CO)[C@H](O)[C@H](n2cc(-c3cc(F)c(F)c(F)c3)nn2)[C@H]1O)c1ccccc1C1CC1 [Example 2.31.106S., (2S,3R,4S,5R,6R)-2-(((S)-1-(2-cyclopropylphenyl)-2-hydroxy-2-methylpropyl)thio)-6-(hydroxymethyl)-4-(4-(3,4,5-trifluorophenyl)-1H-1,2,3-triazol-1-yl)tetrahydro-2H-pyran-3,5-diol]	65	15.9
CC(C)Cc1ccccc1C(S[C@@H]1O[C@H](CO)[C@H](O)[C@H](n2cc(-c3cc(F)c(F)c(F)c3)nn2)[C@H]1O)C(C)(C)O (stereo partly drawn) [Example 2.31.107., (2S,3R,4S,5R,6R)-2-((2-Hydroxy-1-(2-isobutylphenyl)-2-methylpropyl)thio)-6-(hydroxymethyl)-4-(4-(3,4,5-trifluorophenyl)-1H-1,2,3-triazol-1-yl)tetrahydro-2H-pyran-3,5-diol]	0.24	0.26
CC(C)Cc1ccccc1[C@@H](S[C@@H]1O[C@H](CO)[C@H](O)[C@H](n2cc(-c3cc(F)c(F)c(F)c3)nn2)[C@H]1O)C(C)(C)O [Example 2.31.107R., (2S,3R,4S,5R,6R)-2-(((R)-2-hydroxy-1-(2-isobutylphenyl)-2-methylpropyl)thio)-6-(hydroxymethyl)-4-(4-(3,4,5-trifluorophenyl)-1H-1,2,3-triazol-1-yl)tetrahydro-2H-pyran-3,5-diol]	0.3	0.2
CC(C)Cc1ccccc1[C@H](S[C@@H]1O[C@H](CO)[C@H](O)[C@H](n2cc(-c3cc(F)c(F)c(F)c3)nn2)[C@H]1O)C(C)(C)O [Example 2.31.107S., (2S,3R,4S,5R,6R)-2-(((S)-2-hydroxy-1-(2-isobutylphenyl)-2-methylpropyl)thio)-6-(hydroxymethyl)-4-(4-(3,4,5-trifluorophenyl)-1H-1,2,3-triazol-1-yl)tetrahydro-2H-pyran-3,5-diol]	56.6	0.95
CC(C)(O)C(S[C@@H]1O[C@H](CO)[C@H](O)[C@H](n2cc(-c3cc(F)c(F)c(F)c3)nn2)[C@H]1O)c1ccccc1CCO (stereo partly drawn) [Example 2.31.108., (2S,3R,4S,5R,6R)-2-((2-Hydroxy-1-(2-(2-hydroxyethyl)phenyl)-2-methylpropyl)thio)-6-(hydroxymethyl)-4-(4-(3,4,5-trifluorophenyl)-1H-1,2,3-triazol-1-yl)tetrahydro-2H-pyran-3,5-diol]	21.2	0.38
CC(C)(O)[C@H](S[C@@H]1O[C@H](CO)[C@H](O)[C@H](n2cc(-c3cc(F)c(F)c(F)c3)nn2)[C@H]1O)c1ccccc1CCO [Example 2.31.108R., (2S,3R,4S,5R,6R)-2-(((R)-2-Hydroxy-1-(2-(2-hydroxyethyl)phenyl)-2-methylpropyl)thio)-6-(hydroxymethyl)-4-(4-(3,4,5-trifluorophenyl)-1H-1,2,3-triazol-1-yl)tetrahydro-2H-pyran-3,5-diol]	0.39	0.27
CC(C)(O)[C@@H](S[C@@H]1O[C@H](CO)[C@H](O)[C@H](n2cc(-c3cc(F)c(F)c(F)c3)nn2)[C@H]1O)c1ccccc1CCO [Example 2.31.108S., (2S,3R,4S,5R,6R)-2-(((S)-2-Hydroxy-1-(2-(2-hydroxyethyl)phenyl)-2-methylpropyl)thio)-6-(hydroxymethyl)-4-(4-(3,4,5-trifluorophenyl)-1H-1,2,3-triazol-1-yl)tetrahydro-2H-pyran-3,5-diol]	25.8	8.1
CCCCCc1ccccc1C(S[C@@H]1O[C@H](CO)[C@H](O)[C@H](n2cc(-c3cc(F)c(F)c(F)c3)nn2)[C@H]1O)C(C)(C)O (stereo partly drawn) [Example 2.31.109., (2S,3R,4S,5R,6R)-2-((2-Hydroxy-2-methyl-1-(2-pentylphenyl)propyl)thio)-6-(hydroxymethyl)-4-(4-(3,4,5-trifluorophenyl)-1H-1,2,3-triazol-1-yl)tetrahydro-2H-pyran-3,5-diol]	3.23	0.54
